| SMILES | melting point |
| --- | --- |
| Cl.N=C(N)NN=C1CC(c2ccccc2)Cc2[nH]ccc21 (stereo not shown) | 192 to 194 °C |
| Cl.N=C(N)NN=C1CC(c2ccccc2)Cc2c1ccn2Cc1ccccc1 (stereo not shown) | 142 °C (dec.) |
| Cc1ccnc2c1C(=NNC(=N)N)CC(c1ccsc1)C2.Cl (stereo not shown) | ≥ 300 °C |
| Cc1ccnc2c1C(=NNC(=N)N)CC(c1ccsc1Cl)C2.Cl (stereo not shown) | 281 to 283 °C (dec.) |
| Cc1ccnc2c1C(=NNC(=N)N)CC(c1cc(Cl)sc1Cl)C2.Cl (stereo not shown) | ≥ 300 °C |
| Cc1ccnc2c1C(=NNC(=N)NO)CC(c1cc(Cl)sc1Cl)C2.Cl (stereo not shown) | 196 to 197 °C (dec.) |
| Cc1ccnc2c1C(=NNC(=N)NO)CC(c1ccccc1Cl)C2.Cl (stereo not shown) | 185 to 187 °C |
| Cl.N=C(N)N/N=C1\CC(c2ccccc2)Cc2occ(C(N)=O)c21 (stereo not shown) | 294 °C (dec.) |
| Cl.N=C(N)NN=C1CC(c2ccccc2)Cc2c1ccn2C(=O)c1ccccc1 (stereo not shown) | 168 °C (dec.) |
| Cc1ccnc2c1C(=NNC(=N)N)CC(c1cc(Cl)sc1Cl)C2.O=S(=O)(O)O (stereo not shown) | 239 to 242 °C |
| Cc1ccnc2c1C(=NNC(=N)N)CC(c1cc(Cl)sc1Cl)C2.O=[N+]([O-])O (stereo not shown) | 167 °C (dec.) |
| Cc1ccnc2c1C(=NNC(=N)N)CC(c1nccs1)C2.Cl (stereo not shown) | 282 °C (dec.) |
| Cc1ccnc2c1C(=NNC(=N)N)CC(c1sc(Cl)cc1Cl)C2.Cl (stereo not shown) | 184 to 187 °C |
| Cc1cc(Cl)sc1C1CC(=NNC(=N)N)c2c(C)ccnc2C1.Cl (stereo not shown) | 193 to 196 °C |
| Cc1ccnc2c1C(=NNC(=N)N)CC(c1cc(Br)sc1Br)C2.Cl (stereo not shown) | 272 to 273 °C |
| Cc1ccnc2c1C(=NNC(=N)NO)CC(c1ccsc1Br)C2.Cl (stereo not shown) | 197 to 198 °C |
| Cc1cnnc2c1C(=NNC(=N)N)CC(c1ccsc1)C2.Cl (stereo not shown) | 278 to 280 °C (dec.) |
| CS(=O)(=O)O.N=C(N)NN=C1CC(c2ccccc2Cl)Cc2nncc(C(F)(F)F)c21 (stereo not shown) | 207 to 208 °C |
| Cc1cc(=O)n(C)c2c1C(=NNC(=N)N)CC(c1ccsc1)C2.Cl (stereo not shown) | 156 to 157 °C |
| Cc1cc(=O)[nH]c2c1C(=NNC(=N)N)CC(c1ccsc1)C2.Cl (stereo not shown) | ≥ 300 °C |
| Cc1cc(=O)[nH]c2c1C(=NNC(=N)N)CC(c1ccccc1Cl)C2.Cl (stereo not shown) | ≥ 300 °C |
| CCc1cn(S(C)(=O)=O)c2c1C(=NNC(=N)N)CC(c1ccccc1)C2.Cl (stereo not shown) | 260 °C (dec.) |
| CS(=O)(=O)O.Cc1ccnc2c1C(=NNC(=N)N)CC(c1cc(Cl)ccc1Cl)C2 (stereo not shown) | 248 °C (dec.) |
| Cl.N=C(N)NN=C1CC(c2ccccc2Cl)Cc2nncc(-c3ccc(Cl)cc3)c21 (stereo not shown) | 196 °C (dec.) |
| COCc1n[nH]c2c1C(=NNC(=N)N)CC(c1ccccc1Cl)C2.Cl (stereo not shown) | 210 to 212 °C |

| SMILES | melting point |
| --- | --- |
| Cc1nn(Cc2ccccc2)c2c1C(=NNC(=N)N)CC(c1ccccc1Cl)C2.Cl (stereo not shown) | 151 to 153 °C |
| Cc1ccccc1C1CC(=NNC(=N)N)c2c(C)cn(S(C)(=O)=O)c2C1.Cl (stereo not shown) | 228 to 230 °C |
| Cc1c2c(nn1-c1ccccc1)CC(c1ccccc1Cl)CC2=NNC(=N)N.Cl (stereo not shown) | 192 to 194 °C |
| Cc1nn(CCc2ccccc2)c2c1C(=NNC(=N)N)CC(c1ccccc1Cl)C2.Cl (stereo not shown) | 152 to 154 °C |
| Cc1c2c(nn1CCCc1ccccc1)CC(c1ccccc1Cl)CC2=NNC(=N)N.Cl (stereo not shown) | 170 to 180 °C |
| Cc1cnnc2c1C(=NNC(=N)NO)CC(c1ccccc1Cl)C2.Cl (stereo not shown) | 210 °C (dec.) |
| Cc1cn[n+]([O-])c2c1C(=NNC(=N)N)CC(c1ccccc1Cl)C2.Cl (stereo not shown) | 283 to 284 °C |
| Cc1cn(S(C)(=O)=O)c2c1C(=NNC(=N)N)CC(c1ccccc1F)C2.Cl (stereo not shown) | 286 °C (dec.) |
| Cc1cnnc2c1C(=NNC(=N)N)CC(c1cc(Cl)ccc1Cl)C2.Cl (stereo not shown) | 256 to 258 °C |
| Cc1ccc(Cl)c(C2CC(=NNC(=N)N)c3c(C)ccnc3C2)c1.Cl (stereo not shown) | 240 to 243 °C |
| Cc1ccc(F)c(C2CC(=NNC(=N)N)c3c(C)ccnc3C2)c1.Cl (stereo not shown) | 230 to 235 °C |
| Cc1ccc(Cl)cc1C1CC(=NNC(=N)N)c2c(C)ccnc2C1.Cl (stereo not shown) | 215 to 220 °C |
| Cc1ccc(F)cc1C1CC(=NNC(=N)N)c2c(C)ccnc2C1.Cl (stereo not shown) | 202 to 205 °C |
| COc1ccc(Cl)cc1C1CC(=NNC(=N)N)c2c(C)ccnc2C1.Cl (stereo not shown) | 205 to 209 °C |
| Cc1ccnc2c1C(=NNC(=N)N)CC(c1cc(Cl)ccc1O)C2.Cl (stereo not shown) | 202 °C (dec.) |
| COc1ccc(F)cc1C1CC(=NNC(=N)N)c2c(C)ccnc2C1.Cl (stereo not shown) | ≥ 300 °C |
| Cc1cn(S(C)(=O)=O)c2c1C(=NNC(=N)N)CC(c1ccccc1Cl)C2.Cl (stereo not shown) | 258 °C (dec.) |
| Cc1ccnc2c1C(=NNC(=N)N)CC(c1cc(F)ccc1Cl)C2.Cl (stereo not shown) | 268 °C (dec.) |
| Cc1ccc(Cl)c(C2CC(=NNC(=N)N)c3c(C)cnnc3C2)c1.Cl (stereo not shown) | 240 to 242 °C |
| Cc1ccc(F)cc1C1CC(=NNC(=N)N)c2c(C)cnnc2C1.Cl (stereo not shown) | 240 °C (dec.) |
| Cc1cnnc2c1C(=NNC(=N)N)CC(c1cc(Cl)ccc1F)C2.Cl (stereo not shown) | ≥ 300 °C |
| Cc1n[nH]c2c1C(=NNC(=N)N)CC(c1cc(Cl)ccc1Cl)C2.Cl (stereo not shown) | 287 °C (dec.) |
| Cc1cn(S(C)(=O)=O)c2c1C(=NNC(=N)N)CC(c1cccs1)C2.Cl (stereo not shown) | 297 °C (dec.) |
| Cc1ccc(S(=O)(=O)n2ccc3c2CC(c2ccccc2)CC3=NNC(=N)N)cc1.Cl (stereo not shown) | 252 to 256 °C |
| Cc1c[nH]c2c1C(=NNC(=N)N)CC(c1ccccc1)C2.Cl (stereo not shown) | 176 °C (dec.) |

| SMILES | melting point |
| --- | --- |
| Cc1ccccc1C1CC(=NNC(=N)N)c2c(C)n[nH]c2C1.Cl (stereo not shown) | 211 °C (dec.) |
| COc1ccccc1C1CC(=NNC(=N)N)c2c(C)n[nH]c2C1.Cl (stereo not shown) | 202 °C (dec.) |
| Cc1n[nH]c2c1C(=NNC(=N)N)CC(c1ccccc1O)C2.Cl (stereo not shown) | 168 °C (dec.) |
| Cc1coc2c1C(=NNC(=N)N)CC(c1ccccc1)C2.Cl (stereo not shown) | 250 °C (dec.) |
| Cc1coc2c1/C(=N/NC(=N)N)CC(c1cccc(Br)c1)C2.Cl (stereo not shown) | 285 °C (dec.) |
| Cc1ccc(C2CC(=NNC(=N)N)c3c(C)coc3C2)cc1.Cl (stereo not shown) | 260 °C (dec.) |
| Cc1coc2c1C(=NNC(=N)N)CC(c1ccc(Br)cc1)C2.Cl (stereo not shown) | 235 °C (dec.) |
| COc1ccc(C2CC(=NNC(=N)N)c3c(C)coc3C2)cc1.Cl (stereo not shown) | 182 °C (dec.) |
| Cc1ccccc1C1CC(=NNC(=N)N)c2c(C)coc2C1.Cl (stereo not shown) | 266 °C (dec.) |
| Cc1ccc(C)c(C2C/C(=N\NC(=N)N)c3c(C)coc3C2)c1.Cl (stereo not shown) | 235 to 236 °C |
| Cc1coc2c1/C(=N/NC(=N)N)CC(c1ccccc1C(F)(F)F)C2.Cl (stereo not shown) | 275 °C (dec.) |
| Cc1cc2c([nH]1)CC(c1ccccc1)CC2=NNC(=N)N.Cl (stereo not shown) | 215 °C (dec.) |
| Cc1coc2c1/C(=N/NC(=N)N)CC(c1ccccc1F)C2.Cl (stereo not shown) | 288 °C (dec.) |
| Cc1coc2c1C(=NNC(=N)N)CC(c1ccc(F)cc1F)C2.Cl (stereo not shown) | 278 °C (dec.) |
| Cc1coc2c1/C(=N/NC(=N)N)CC(c1ccccc1Cl)C2.Cl (stereo not shown) | 300 °C (dec.) |
| Cc1coc2c1/C(=N/NC(=N)N)CC(c1cccc(Cl)c1Cl)C2.Cl (stereo not shown) | 286 °C (dec.) |
| Cc1coc2c1/C(=N/NC(=N)N)CC(c1ccccc1Br)C2.Cl (stereo not shown) | 296 °C (dec.) |
| Cc1coc2c1/C(=N/NC(=N)N)CC(c1ccco1)C2.Cl (stereo not shown) | ≥ 300 °C |
| Cc1ccc(C2Cc3occc3/C(=N/NC(=N)N)C2C)s1.Cl (stereo not shown) | 287 °C (dec.) |
| Cl.N=C(N)N/N=C1\CC(c2ccc(F)cc2)Cc2occ(C(F)(F)F)c21 (stereo not shown) | 283 °C (dec.) |
| Cl.N=C(N)N/N=C1\CC(c2ccccc2Br)Cc2occ(C(F)(F)F)c21 (stereo not shown) | 289 °C (dec.) |
| Cl.N=C(N)N/N=C1\CC(c2ccco2)Cc2occ(C(F)(F)F)c21 (stereo not shown) | 282 °C (dec.) |
| CCOC(=O)c1coc2c1/C(=N/NC(=N)N)CC(c1ccccc1)C2.Cl (stereo not shown) | 260 °C (dec.) |
| CCOC(=O)c1coc2c1/C(=N/NC(=N)N)CC(c1ccccc1Cl)C2.Cl (stereo not shown) | 277 °C (dec.) |
| Cc1ccccc1C1CC(=NNC(=N)N)c2c(C)ccnc2C1.Cl (stereo not shown) | 218 °C (dec.) |

| SMILES | melting point |
| --- | --- |
| Cc1ccnc2c1C(=NNC(=N)N)CC(c1ccc(F)cc1F)C2.Cl (stereo not shown) | 286 °C (dec.) |
| Cc1ccnc2c1C(=NNC(=N)N)CC(c1cccc(Cl)c1Cl)C2.Cl (stereo not shown) | 270 to 272 °C |
| Cc1ccnc2c1C(=NNC(=N)N)CC(c1ccccc1Br)C2.Cl (stereo not shown) | 233 °C (dec.) |
| COc1ccccc1C1CC(=NNC(=N)N)c2c(C)ccnc2C1.Cl (stereo not shown) | 192 °C (dec.) |
| Cc1ccnc2c1C(=NNC(=N)N)CC(c1ccco1)C2.Cl (stereo not shown) | ≥ 300 °C |
| Cc1ccnc2c1C(=NNC(=N)N)CC(c1ccncc1)C2.Cl (stereo not shown) | 267 °C (dec.) |
| Cc1cn(C)c2c1C(=NNC(=N)N)CC(c1ccccc1)C2.Cl (stereo not shown) | 230 °C (dec.) |
| Cc1ccc2c(n1)CC(c1ccccc1)CC2=NNC(=N)N.Cl (stereo not shown) | ≥ 300 °C |
| Cc1cc(C)c2c(n1)CC(c1ccccc1)CC2=NNC(=N)N.Cl (stereo not shown) | 270 °C (dec.) |
| Cc1cc(C)c2c(n1)CC(c1ccccc1Cl)CC2=NNC(=N)N.Cl (stereo not shown) | 227 °C (dec.) |
| Cc1cc(C)c2c(n1)CC(c1ccccn1)CC2=NNC(=N)N.Cl (stereo not shown) | 201 °C (dec.) |
| Cc1ccc2c(n1)CC(c1ccccc1C)CC2=NNC(=N)N.Cl (stereo not shown) | 206 °C (dec.) |
| Cc1ncnc2c1/C(=N/NC(=N)N)CC(c1ccccc1Cl)C2.Cl (stereo not shown) | 284 °C (dec.) |
| CCCn1ccc2c1CC(c1ccccc1)CC2=NNC(=N)N.Cl (stereo not shown) | 155 °C (dec.) |
| Cc1nc(C)c2c(n1)CC(c1ccccc1Cl)C/C2=N\NC(=N)N.Cl (stereo not shown) | 242 to 244 °C |
| Cc1ccccc1C1=CC(=NNC(=N)N)c2c(C)ccnc21.Cl | 203 to 204 °C (dec.) |
| CNC(=N)NN=C1CC(c2ccccc2Cl)Cc2[nH]nc(C)c21.Cl (stereo not shown) | 240 °C (dec.) |
| Cc1ccc(C)c(C2CC(=NNC(=N)NO)c3c(C)ccnc3C2)c1.Cl (stereo not shown) | 190 to 192 °C (dec.) |
| Cc1ccnc2c1C(=NNC(=N)NO)CC(c1cccc(Cl)c1Cl)C2.Cl (stereo not shown) | 196 to 198 °C (dec.) |
| Cc1ccnc2c1C(=NNC(=N)NO)CC(c1ccco1)C2.Cl (stereo not shown) | 196 to 198 °C (dec.) |
| Cc1ccc(C2CC(=NNC(=N)NO)c3c(C)ccnc3C2)s1.Cl (stereo not shown) | 210 to 212 °C (dec.) |
| Cl.N=C(N)NN=C1CC(c2ccccc2)Cc2[nH]c(=O)ccc21 (stereo not shown) | ≥ 300 °C |

From patent publication US6350749B1, “Aminoguanidine hydrazone derivatives, process for producing the same and drugs thereof” (Takeda Chemical Industries, Ltd., priority 1998, dated 2002)
